Data set [1] concerns the target T1, recombinant human 5-HT2A receptor (Homo sapiens, UniProt P28223).
T1 construct: expressed in transfected cells
As to the kind of experiment: Radioligand binding studies, 5-HT2A ligand affinity ([3H]Ketanserin competition). The settings on record: [3H]Ketanserin displacement, membranes of CHO-K1 cells expressing the receptor, pH 7.4, 32° C.; read-out: pKi for the 5-HT2A receptor (converted). How it is done:
(§1) This example illustrates in vitro radioligand binding studies of compound of formula I.
(§2) The binding activity of compounds of this invention in vitro was determined as follows. Duplicate determinations of 5-HT6 ligand affinity were made by competing for binding of [^3H]LSD in cell membranes derived from HEK293 cells stably expressing recombinant human 5-HT6 receptor. Duplicate determinations of 5-HT2A ligand affinity were made by competing for binding of [^3H]Ketanserin (3-(2-(4-(4-fluorobenzoyl)piperidinol)ethyl)-2,4(1H,3H)-quinazolinedione) in cell membranes derived from CHO-K1 cells stably expressing recombinant human 5-HT2A receptor. Membranes were prepared from HEK 293 cell lines by the method described by Monsma et al., Molecular Pharmacology, Vol. 43 pp. 320-327 (1993), and from CHO-K1 cell lines as described by Bonhaus et al., Br J. Pharmacol. June; 115(4):622-8 (1995).
(§3) For estimation of affinity at the 5-HT6 receptor, all determinations were made in assay buffer containing 50 mM Tris-HCl, 10 mM MgSO4, 0.5 mM EDTA, 1 mM ascorbic acid, pH 7.4 at 37° C., in a 250 microliter reaction volume. […]
(§4) Assay tubes containing [^3H] […] LSD or [^3H]Ketanserin were determined as radioactive counts per minute using Packard TopCount.
(§5) Displacement of [^3H]LSD or [^3H]Ketanserin from the binding sites was quantified by fitting concentration-binding data to a 4-parameter logistic equation: […]

In data set [2] the target is T2, recombinant human 5-HT6 receptor (Homo sapiens, UniProt P50406).
T2 construct: expressed in transfected cells
T2 sequence (P50406 whole entry): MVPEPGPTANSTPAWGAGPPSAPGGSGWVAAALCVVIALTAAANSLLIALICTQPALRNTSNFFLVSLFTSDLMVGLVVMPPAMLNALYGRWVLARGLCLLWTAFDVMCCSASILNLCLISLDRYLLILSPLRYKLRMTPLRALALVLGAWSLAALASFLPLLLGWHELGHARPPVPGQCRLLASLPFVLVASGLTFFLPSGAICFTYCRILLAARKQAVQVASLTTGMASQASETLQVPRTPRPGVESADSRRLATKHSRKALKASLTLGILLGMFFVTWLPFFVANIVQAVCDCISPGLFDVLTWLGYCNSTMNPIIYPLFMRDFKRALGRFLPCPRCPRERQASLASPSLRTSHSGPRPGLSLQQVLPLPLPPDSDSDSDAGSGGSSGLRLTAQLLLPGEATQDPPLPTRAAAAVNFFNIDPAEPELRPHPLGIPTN
As to the kind of experiment: Radioligand binding studies, 5-HT6 ligand affinity ([3H]LSD competition). The settings on record: [3H]LSD displacement, membranes of HEK293 cells expressing the receptor, pH 7.4, 37° C.; read-out: pKi for the 5-HT6 receptor (converted). As to the method: as §1, §2, §3, §4, §5

The values below come from patent publication US7776910B2, “Arylsulfonyl pyrrolidines as 5-HT6 inhibitors” (Roche Palo Alto LLC, priority 2006, dated 2010).

Structures can show the parent of a compound that is named as a salt.

T1 sequence (P28223 whole entry): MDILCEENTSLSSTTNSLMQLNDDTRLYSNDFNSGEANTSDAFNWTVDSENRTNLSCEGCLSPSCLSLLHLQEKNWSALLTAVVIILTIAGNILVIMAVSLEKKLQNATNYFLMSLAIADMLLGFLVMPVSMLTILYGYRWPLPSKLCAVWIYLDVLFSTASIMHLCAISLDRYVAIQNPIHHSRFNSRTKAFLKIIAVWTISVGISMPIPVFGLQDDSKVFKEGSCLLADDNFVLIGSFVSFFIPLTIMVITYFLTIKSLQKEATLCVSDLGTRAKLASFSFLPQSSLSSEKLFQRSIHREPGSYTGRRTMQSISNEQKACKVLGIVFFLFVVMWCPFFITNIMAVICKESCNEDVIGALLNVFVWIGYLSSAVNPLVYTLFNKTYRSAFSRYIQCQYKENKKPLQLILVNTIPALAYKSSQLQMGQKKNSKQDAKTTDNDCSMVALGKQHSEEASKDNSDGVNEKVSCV

With `CCSc1cccc(S(=O)(=O)c2ccc(C3CCNC3)c(O)c2)c1` (centres unmarked) [5-(3-Ethylsulfanyl-benzenesulfonyl)-2-pyrrolidin-3-yl-phenol], the Ki in data set [1] is approximately 891 pM. In the case of `CN1CC[C@@H](c2ccc(S(=O)(=O)c3ccc(O)cc3)cc2F)C1` [4-[3-Fluoro-4-(1-methyl-(S)-pyrrolidin-3-yl)-benzenesulfonyl]-phenol], the Ki in data set [2] was approximately 100 pM.

For the compound `O=S(=O)(c1cccc(F)c1)c1ccc([C@@H]2CCNC2)c(O)c1` (as salt: HCl) [Compound 35, 5-(3-Fluoro-benzenesulfonyl)-2-(S)-pyrrolidin-3-yl-phenol], the melting point (as a rule, the temperature of the solid-liquid transition) was in the range of 239 to 241 °C.

The compound `CCS(=O)(=O)c1cccc(S(=O)(=O)c2ccc(C3CCNC3)c(O)c2)c1` (centres unmarked) (as salt: HCl) [Compound 20, 5-(3-Ethanesulfonyl-benzenesulfonyl)-2-pyrrolidin-3-yl-phenol] yielded a melting point of 124.5 to 126.7 °C. Still for that read-out and setting: the figure for `Cc1cc(S(=O)(=O)c2ccc(O)cc2)ccc1C1CCN(C)C1` (centres unmarked) (as salt: HCl) [Compound 51, 4-[3-Methyl-4-(1-methyl-pyrrolidin-3-yl)-benzenesulfonyl]-phenol] is 186 to 187.5 °C; for `Cc1cc(S(=O)(=O)c2ccccc2)ccc1[C@@H]1CCN(S(C)(=O)=O)C1` [Compound 115, 3-(4-Benzenesulfonyl-2-methyl-phenyl)-1-methanesulfonyl-(S)-pyrrolidine] it is 56 to 58 °C.

For `Cc1cc(S(=O)(=O)c2ccc(O)c(C(C)C)c2)ccc1C1CCNC1` (centres unmarked) [Compound 85, 2-Isopropyl-4-(3-methyl-4-pyrrolidin-3-yl-benzenesulfonyl)-phenol], the melting point lay in the range of 125 to 128 °C. Same read-out and setting: for `Cc1cc(S(=O)(=O)c2ccc(O)c(Cl)c2)ccc1C1CCNC1` (centres unmarked) (as salt: HCl) [Compound 32, 2-Chloro-4-(3-methyl-4-pyrrolidin-3-yl-benzenesulfonyl)-phenol] the value was 110 to 112.9 °C.
